Test results from US20240246905A1 (University of Leicester, priority 2021, published 2024).
Values after ≈ are worked out from the molar mass of the structure shown.

Legend:
MRSA 252 [1] = test: MIC, broth micro-dilution; format: cell-based, Staphylococcus aureus; conditions: Staphylococcus aureus, read-out: MIC
How it was run: (§1)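 Broth micro-dilution followed CLSI 2017: 1:2 antibiotic dilutions in TSB were inoculated at 5×10^5 CFU/mL. OD was recorded every 12 min over 18 h at 37 °C, and MIC was derived from sigmoidal dose-response fits.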

MSSA 476 [2] = test: MIC, broth micro-dilution; format: cell-based, Staphylococcus aureus; conditions: Staphylococcus aureus, MSSA, read-out: MIC
How it was run: as §1

MRSA 252 [3] = test: Disc diffusion (Kirby-Bauer), zone of inhibition; format: cell-based, Staphylococcus aureus; conditions: Staphylococcus aureus, 500 μg/mL, '/' = no zone, read-out: Zone of inhibition
How it was run: (§2)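 Kirby-Bauer per CLSI 2017: 1 in 200 dilutions of overnight cultures (LB for Gram-negatives, TSB for Gram-positives) spread on Mueller-Hinton agar. Discs loaded with 50 μL antibiotic were added and plates incubated 24 h at 37 °C. Zone of inhibition recorded.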

MSSA 476 [4] = test: Disc diffusion (Kirby-Bauer), zone of inhibition; format: cell-based, Staphylococcus aureus; conditions: Staphylococcus aureus, 500 μg/mL, '/' = no zone, read-out: Zone of inhibition
How it was run: as §2

[5] = tested on: Staphylococcus aureus 15981; test: Disc diffusion (Kirby-Bauer), zone of inhibition; format: cell-based; conditions: Staphylococcus aureus 15981; 500 μg/mL; '/' = no zone; read-out: Zone of inhibition
How it was run: as §2

[6] = tested on: various Staphylococcus aureus strains; test: Disc diffusion, Staphylococcus aureus strain study; format: cell-based; conditions: Staphylococcus aureus, 500 μg/mL
How it was run: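 Kirby-Bauer disc diffusion on Mueller-Hinton agar spread with 1:200 dilution of overnight S. aureus cultures (TSB, 37 °C). Discs loaded with 50 μL of compound at 500 μg/mL; zone of inhibition recorded after 24 h at 37 °C.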

C. tropicalis ATCC 450 = test: Anti-fungal MIC (CO-ADD); format: cell-based; conditions: Candida tropicalis, ATCC450, read-out: MIC
How it was run: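 First, yeasts are cultured on YPD agar for 3 days at 30 °C. Next, five colonies give a suspension at 1×10^6 to 5×10^6 CFU/mL judged by OD530. Then covered plates sit at 35 °C for 36 hours, unshaken, before absorbance reading.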

HEK293 cells = test: Cytotoxicity assay, resazurin (CO-ADD); conditions: for toxicity towards the HEK293 cell line (in words): set concentration of 32 μg/mL
How it was run: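 HEK293 cells in DMEM with 10% FBS were exposed to compounds at a single concentration of 32 μg/mL for 20 h at 37° C, 5% CO2. Viability read by resazurin fluorescence (2.3 μg/mL final, 3 h; F560/590). CC50 from sigmoidal dose-response fitting.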

red blood cells = test: Hemolysis assay (CO-ADD); format: cell-based; conditions: 32 μg/mL highest concentration tested
Text: A problem often encountered by emerging drugs is hemolysis, also known as drug-induced immune hemolytic anemia.

## [C-]#[N+]/C=C/c1ccc(O)cc1/C=C/c1ccccc1 [Compound 36, 4-((E Z)-2-Isocyanovinyl)-3-((E)-styryl)phenol]
MRSA 252 [1]
  MIC: 15 µg/mL (≈ 60.7 µM)
MSSA 476 [2]
  MIC: 12 µg/mL (≈ 48.5 µM)
MRSA 252 [3]
  zone of inhibition at 500 µg/mL: 28 mm
MSSA 476 [4]
  zone of inhibition at 500 µg/mL: 30 mm
[5]
  zone of inhibition at 500 µg/mL: 30 mm
[6]; strain ASARM 61
  zone of inhibition at 500 µg/mL: 29 mm
[6]; strain ASARM 70
  zone of inhibition at 500 µg/mL: 28 mm
[6]; strain ASARM 71
  zone of inhibition at 500 µg/mL: 26 mm
[6]; strain ASARM 72
  zone of inhibition at 500 µg/mL: 26 mm
[6]; strain ASARM 73
  zone of inhibition at 500 µg/mL: 29 mm
[6]; strain ASARM 75
  zone of inhibition at 500 µg/mL: 32 mm
[6]; strain ASARM 76
  zone of inhibition at 500 µg/mL: 34 mm
[6]; strain ASARM 77
  zone of inhibition at 500 µg/mL: 34 mm
[6]; strain ASARM 79
  zone of inhibition at 500 µg/mL: 29 mm
[6]; strain ASARM 80
  zone of inhibition at 500 µg/mL: 30 mm
[6]; strain EOE 3
  zone of inhibition at 500 µg/mL: 30 mm
[6]; strain EOE 23
  zone of inhibition at 500 µg/mL: 32 mm
[6]; strain EOE 30
  zone of inhibition at 500 µg/mL: 34 mm
[6]; strain EOE 35
  zone of inhibition at 500 µg/mL: 32 mm
[6]; strain EOE 41
  zone of inhibition at 500 µg/mL: 28 mm
[6]; strain EOE 42
  zone of inhibition at 500 µg/mL: 26 mm
[6]; strain EOE 45
  zone of inhibition at 500 µg/mL: 28 mm
[6]; strain EOE 52
  zone of inhibition at 500 µg/mL: 28 mm
[6]; strain EOE 54
  zone of inhibition at 500 µg/mL: 29 mm
[6]; strain EOE 57
  zone of inhibition at 500 µg/mL: 28 mm
[6]; strain S139_7_7
  zone of inhibition at 500 µg/mL: 24 mm
[6]; strain S197_1_1
  zone of inhibition at 500 µg/mL: 29 mm
[6]; strain S197_1_8
  zone of inhibition at 500 µg/mL: 28 mm
[6]; strain S197_1_9
  zone of inhibition at 500 µg/mL: 28 mm
[6]; strain S197_1_10
  zone of inhibition at 500 µg/mL: 28 mm
[6]; strain S295_1_1
  zone of inhibition at 500 µg/mL: 30 mm
[6]; strain S295_1_2
  zone of inhibition at 500 µg/mL: 30 mm
[6]; strain S295_1_3
  zone of inhibition at 500 µg/mL: 32 mm
[6]; strain S364_5_11
  zone of inhibition at 500 µg/mL: 30 mm
[6]; strain S364_5_12
  zone of inhibition at 500 µg/mL: 28 mm
[6]; strain Sa_TPS 3026
  zone of inhibition at 500 µg/mL: 29 mm
[6]; strain Sa_TPS 3072
  zone of inhibition at 500 µg/mL: 28 mm
[6]; strain Sa_TPS 3092
  zone of inhibition at 500 µg/mL: 29 mm
[6]; strain Sa_TPS 3097
  zone of inhibition at 500 µg/mL: 34 mm
[6]; strain Sa_TPS 3103
  zone of inhibition at 500 µg/mL: 32 mm
[6]; strain Sa_TPS 3104
  zone of inhibition at 500 µg/mL: 32 mm
[6]; strain Sa_TPS 3106
  zone of inhibition at 500 µg/mL: 28 mm
[6]; strain Sa_TPS 3118
  zone of inhibition at 500 µg/mL: 28 mm
[6]; strain Sa_TPS 3133
  zone of inhibition at 500 µg/mL: 28 mm
[6]; strain Sa_TPS 3134
  zone of inhibition at 500 µg/mL: 26 mm
[6]; strain USFL 008
  zone of inhibition at 500 µg/mL: 26 mm
[6]; strain USFL 009
  zone of inhibition at 500 µg/mL: 28 mm
[6]; strain USFL 012
  zone of inhibition at 500 µg/mL: 28 mm
[6]; strain USFL 016
  zone of inhibition at 500 µg/mL: 32 mm
[6]; strain USFL 018
  zone of inhibition at 500 µg/mL: 30 mm
[6]; strain USFL 020
  zone of inhibition at 500 µg/mL: 30 mm
[6]; strain USFL 021
  zone of inhibition at 500 µg/mL: 29 mm
[6]; strain USFL 028
  zone of inhibition at 500 µg/mL: 28 mm
[6]; strain USFL 035
  zone of inhibition at 500 µg/mL: 28 mm
[6]; strain USFL 054
  zone of inhibition at 500 µg/mL: 28 mm
[6]; strain not given
  zone of inhibition at 500 µg/mL: 22 mm
C. tropicalis ATCC 450
  MIC: 2 µg/mL
HEK293 cells
  Concentration toxic to HEK 293 cells: >32000 ng/mL
  toxicity towards the HEK293 cell line (in words): no toxicity
Red blood cells
  Hemolytic activity (HC10): >32 µg/mL

## [C-]#[N+]/C=C/c1ccc(NC(C)=O)cc1/C=C/c1ccccc1 [Compound 41, N-(4-((E)-2-Isocyanovinyl)-3-((E)-styryl)phenyl)acetamide]
MRSA 252 [1]
  MIC: 6 µg/mL (≈ 20.8 µM)
MSSA 476 [2]
  MIC: 8 µg/mL (≈ 27.7 µM)
MRSA 252 [3]
  zone of inhibition at 500 µg/mL: 32 mm
MSSA 476 [4]
  zone of inhibition at 500 µg/mL: 34 mm
[5]
  zone of inhibition at 500 µg/mL: 34 mm
[6]; strain ASARM 61
  zone of inhibition at 500 µg/mL: 28 mm
[6]; strain ASARM 70
  zone of inhibition at 500 µg/mL: 32 mm
[6]; strain ASARM 71
  zone of inhibition at 500 µg/mL: 32 mm
[6]; strain ASARM 72
  zone of inhibition at 500 µg/mL: 30 mm
[6]; strain ASARM 73
  zone of inhibition at 500 µg/mL: 27 mm
[6]; strain ASARM 75
  zone of inhibition at 500 µg/mL: 26 mm
[6]; strain ASARM 76
  zone of inhibition at 500 µg/mL: 27 mm
[6]; strain ASARM 77
  zone of inhibition at 500 µg/mL: 25 mm
[6]; strain ASARM 79
  zone of inhibition at 500 µg/mL: 29 mm
[6]; strain ASARM 80
  zone of inhibition at 500 µg/mL: 30 mm
[6]; strain EOE 3
  zone of inhibition at 500 µg/mL: 26 mm
[6]; strain EOE 23
  zone of inhibition at 500 µg/mL: 26 mm
[6]; strain EOE 30
  zone of inhibition at 500 µg/mL: 30 mm
[6]; strain EOE 35
  zone of inhibition at 500 µg/mL: 28 mm
[6]; strain EOE 41
  zone of inhibition at 500 µg/mL: 26 mm
[6]; strain EOE 42
  zone of inhibition at 500 µg/mL: 30 mm
[6]; strain EOE 45
  zone of inhibition at 500 µg/mL: 30 mm
[6]; strain EOE 52
  zone of inhibition at 500 µg/mL: 28 mm
[6]; strain EOE 54
  zone of inhibition at 500 µg/mL: 26 mm
[6]; strain EOE 57
  zone of inhibition at 500 µg/mL: 30 mm
[6]; strain S139_7_7
  zone of inhibition at 500 µg/mL: 22 mm
[6]; strain S197_1_1
  zone of inhibition at 500 µg/mL: 32 mm
[6]; strain S197_1_8
  zone of inhibition at 500 µg/mL: 30 mm
[6]; strain S197_1_9
  zone of inhibition at 500 µg/mL: 32 mm
[6]; strain S197_1_10
  zone of inhibition at 500 µg/mL: 31 mm
[6]; strain S295_1_1
  zone of inhibition at 500 µg/mL: 29 mm
[6]; strain S295_1_2
  zone of inhibition at 500 µg/mL: 25 mm
[6]; strain S295_1_3
  zone of inhibition at 500 µg/mL: 27 mm
[6]; strain S364_5_11
  zone of inhibition at 500 µg/mL: 27 mm
[6]; strain S364_5_12
  zone of inhibition at 500 µg/mL: 28 mm
[6]; strain Sa_TPS 3026
  zone of inhibition at 500 µg/mL: 28 mm
[6]; strain Sa_TPS 3072
  zone of inhibition at 500 µg/mL: 26 mm
[6]; strain Sa_TPS 3092
  zone of inhibition at 500 µg/mL: 28 mm
[6]; strain Sa_TPS 3097
  zone of inhibition at 500 µg/mL: 28 mm
[6]; strain Sa_TPS 3103
  zone of inhibition at 500 µg/mL: 28 mm
[6]; strain Sa_TPS 3104
  zone of inhibition at 500 µg/mL: 28 mm
[6]; strain Sa_TPS 3106
  zone of inhibition at 500 µg/mL: 36 mm
[6]; strain Sa_TPS 3118
  zone of inhibition at 500 µg/mL: 32 mm
[6]; strain Sa_TPS 3133
  zone of inhibition at 500 µg/mL: 28 mm
[6]; strain Sa_TPS 3134
  zone of inhibition at 500 µg/mL: 26 mm
[6]; strain USFL 008
  zone of inhibition at 500 µg/mL: 28 mm
[6]; strain USFL 009
  zone of inhibition at 500 µg/mL: 27 mm
[6]; strain USFL 012
  zone of inhibition at 500 µg/mL: 32 mm
[6]; strain USFL 016
  zone of inhibition at 500 µg/mL: 29 mm
[6]; strain USFL 018
  zone of inhibition at 500 µg/mL: 32 mm
[6]; strain USFL 020
  zone of inhibition at 500 µg/mL: 28 mm
[6]; strain USFL 021
  zone of inhibition at 500 µg/mL: 29 mm
[6]; strain USFL 028
  zone of inhibition at 500 µg/mL: 29 mm
[6]; strain USFL 035
  zone of inhibition at 500 µg/mL: 30 mm
[6]; strain USFL 054
  zone of inhibition at 500 µg/mL: 30 mm
[6]; strain not given
  zone of inhibition at 500 µg/mL: 30 mm
C. tropicalis ATCC 450
  MIC: 1 to 2 µg/mL
HEK293 cells
  Concentration toxic to HEK 293 cells: >32000 ng/mL
  toxicity towards the HEK293 cell line (in words): no toxicity
Red blood cells
  Hemolytic activity (HC10): >32 µg/mL
